{"source": "patent US10722530B2", "about": "“Methods of diagnosing and treating cancer” (CASE WESTERN RESERVE UNIVERSITY, priority 2016, dated 2020)", "key": {"[1]": {"tested_on": "γH2AX foci in DLD1 cells", "assay": "γH2AX foci immunofluorescence staining", "assay_type": "cell-based, human", "settings": "10 μM Q-VD-OPh with 50 nM 5-FdU, DLD1 shSCR or shUDG", "procedure": "(§1) Cells cultured on glass coverslips were treated with 5-FdU in the presence or absence of 10 μM caspase inhibitor Q-VD-OPH (BioVision Inc). Cells were fixed in 3.7% formaldehyde for 10 minutes, blocked with PBS containing 10% FBS and 0.1% Triton X-100 for 20 minutes, washed with PBS three times, and incubated with primary anti-γH2AX antibody (Millipore, dilution: 1:150) in PBS containing 0.1% Triton X-100 at 4° C. overnight. The cells were then washed with PBS three times, incubated with secondary antibodies (Alexa Fluor 594, Life Technologies; dilution: 1:400) in PBS containing 0.1% Triton X-100 for 1 h, and washed with PBS three times. The slides were mounted with antifade solution with DAPI (Cell Signaling) and visualized on a Leica laser microscope."}, "[2]": {"tested_on": "γH2AX foci in HEC1A cells", "assay": "γH2AX foci immunofluorescence staining", "assay_type": "cell-based, human", "settings": "10 μM Q-VD-OPh with 50 nM 5-FdU, HEC1A shSCR or shUDG", "procedure": "as §1"}, "[3]": {"tested_on": "cleaved PARP in DLD1 cells", "assay": "Western blot of cleaved PARP", "assay_type": "cell-based, human", "settings": "10 μM Q-VD-OPh, 50 nM 5-FdU, DLD1 shSCR and shUDG", "procedure": "(§2) Western blots were performed as described in Yan et al. (Clin Cancer Res. (2007) 13:1532-39). Antibodies used were as follows: Anti-UDG (FL-313) (Santa Cruz Biotechnology), anti-Cleaved PARP (Asp214)(19F4) (Cell Signaling), and anti-α-Tubulin (Calbiochem)."}, "[4]": {"tested_on": "cleaved PARP in HEC1A cells", "assay": "Western blot of cleaved PARP", "assay_type": "cell-based, human", "settings": "10 μM Q-VD-OPh, 50 nM 5-FdU, HEC1A shSCR and shUDG", "procedure": "as §2"}, "[5]": {"tested_on": "HEC1A endometrial cancer cells", "assay": "Colony survival assay, shSCR and shUDG cells", "assay_type": "cell-based, human", "settings": "HEC1A shUDG vs shSCR", "description": "UDG knockdown was performed via shRNA transduction with validated clone from Sigma-Aldrich. The ID of UDG shRNA clone is NM_003362.2-656s21c1. A non-targeted scramble control shRNA clone (Sigma-Aldrich) was also used. Transfection of shRNA clones was performed according to manufacturer's specifications from Lipofectamine 2000 (Invitrogen). Lentiviral particles were produced via HEK293 cells, and targeted cells were infected and selected with puromycin. The stable UDG knockdown levels were verified for q-PCR and western blot analysis.\nDLD1 (200 cells/well) or HEC1A (300 cells/well) cells were plated in 6-well culture dishes and allowed to adhere for 16 h. Cells were treated with drug for 24 h, gently washed twice with 1×PBS, and incubated with fresh media for at least 10 days to allow individual colonies to form. Colonies were stained with methylene blue, and only colonies containing ≥50 cells were counted. The percentage of survival was determined relative to untreated control averaged over 3 independent experiments."}, "[6]": {"tested_on": "DLD1 colon cancer cells", "settings": "for effect of UDG depletion on drug sensitivity: DLD1 shUDG vs shSCR", "description": "UDG knockdown was performed via shRNA transduction with validated clone from Sigma-Aldrich. […] A non-targeted scramble control shRNA clone (Sigma-Aldrich) was also used. Transfection of shRNA clones was performed according to manufacturer's specifications from Lipofectamine 2000 (Invitrogen). Lentiviral particles were produced via HEK293 cells, and targeted cells were infected and selected with puromycin. The stable UDG knockdown levels were verified for q-PCR and western blot analysis.\nColonies were stained with methylene blue, and only colonies containing ≥50 cells were counted. The percentage of survival was determined relative to untreated control averaged over 3 independent experiments."}, "[7]": {"tested_on": "HCT116 p53 WT cells", "excerpt": "(§3) p53 or UDG knockdown was achieved via shRNA transduction. Lentiviral vectors LV-THM-shp53 (which also expresses a GFP reporter) or LV-Bleo-shp53 to perform p53 KD in WT HCT116 cells were obtained from Case Western Reserve University, Cleveland, Ohio Lentiviral vector targeting GFP (sh-GFP) was used as control. UDG shRNA vectors (shUDG: NM_003362.2-656s21c1, shUDG-2: NM_003362.2-758s21c1, and shUDG-3: NM_003362.2-893s21c1) were purchased from Sigma, and a scramble targeting shRNA vector (Sigma) was used as paired control. The lentiviral production and infection were performed as previously described. Cells stably infected with LV-THM-p53 were isolated by cell sorting on the basis of their GFP expression.\n(§4) Cancer cells (200-300 cells/well) were seeded in 6-well culture dishes and allowed to adhere overnight. For 5-FdU, cells were treated for 24 h, then gently washed with PBS, and incubated with fresh media for at least 10 days to allow individual colonies to form. […] After 10-18 days, the plates were stained with methylene blue. Colonies containing ≥50 cells were counted. The percentage of survival was determined relative to untreated control averaged over 3 independent experiments."}, "[8]": {"tested_on": "HCT116 p53 KO cells", "excerpt": "as §3, §4"}}, "note": "Read-outs that look alike come from different tables or passages of the source.", "data": [{"compound": "CC(C)[C@H](NC(=O)c1ccc2ccccc2n1)C(=O)N[C@@H](CC(=O)O)C(=O)COc1c(F)cccc1F", "note": "[Q-VD-OPh]", "values": [{"measurement": "γH2AX foci, Q-VD-OPh treated vs non-treated", "setting": "[1]", "value": "essentially the same"}, {"measurement": "γH2AX foci, Q-VD-OPh treated vs non-treated", "setting": "[2]", "value": "essentially the same"}, {"measurement": "cleaved PARP induced by 5-FdU in presence of Q-VD-OPh", "setting": "[3]", "value": "almost completely blocked"}, {"measurement": "cleaved PARP induced by 5-FdU in presence of Q-VD-OPh", "setting": "[4]", "value": "almost completely blocked"}]}, {"compound": "Nc1nc2[nH]cc(CCc3ccc(C(=O)N[C@@H](CCC(=O)O)C(=O)O)cc3)c2c(=O)[nH]1", "note": "[pemetrexed]", "values": [{"measurement": "effect of UDG depletion on drug sensitivity", "setting": "[5]", "value": "sensitization was also observed"}, {"measurement": "effect of UDG depletion on drug sensitivity", "setting": "[6]", "value": "sensitization was also observed"}, {"measurement": "effect of UDG depletion on cytotoxicity", "setting": "[7]", "value": "no significant survival differences"}, {"measurement": "effect of UDG depletion on cytotoxicity", "setting": "[8]", "value": "sensitized"}]}, {"compound": "Cc1cn([C@H]2C[C@H](O)[C@@H](CO)O2)c(=O)[nH]c1=O", "note": "[thymidine]", "values": [{"measurement": "rescue of 5-FdU cell death by thymidine given 24 h after", "setting": "[6]; 20 μM thymidine 24 h after 5-FdU, UDG depleted cells", "value": "barely inhibited cell death"}, {"measurement": "cell killing by 5-FdU with simultaneous thymidine", "setting": "[6]; 20 μM thymidine simultaneously with 0 to 200 nM 5-FdU, shSCR or shUDG", "value": "almost no killing"}]}, {"compound": "O=c1[nH]cc(F)c(=O)[nH]1", "note": "[5-FU, 5-Fluorouracil]", "values": [{"measurement": "effect of UDG depletion on cytotoxicity", "setting": "[7]; HCT116 p53 WT, shUDG vs shSCR", "value": "no significant survival differences"}, {"measurement": "effect of UDG depletion on cytotoxicity", "setting": "[8]; HCT116 p53 KO, shUDG vs shSCR", "value": "only moderately sensitized"}]}, {"compound": "N.N.[Cl][Pt][Cl]", "note": "[cisplatin, cis-diamminedichloroplatinum II]", "values": [{"measurement": "effect of UDG depletion on drug sensitivity", "setting": "[5]", "value": "no further sensitivity"}, {"measurement": "effect of UDG depletion on drug sensitivity", "setting": "[6]", "value": "no further sensitivity"}]}, {"compound": "COc1cccc2c1C(=O)c1c(O)c3c(c(O)c1C2=O)C[C@@](O)(C(=O)CO)C[C@@H]3O[C@H]1C[C@H](N)[C@H](O)[C@H](C)O1", "note": "[doxorubicin]", "values": [{"measurement": "effect of UDG depletion on drug sensitivity", "setting": "[5]", "value": "no further sensitivity"}, {"measurement": "effect of UDG depletion on drug sensitivity", "setting": "[6]", "value": "no further sensitivity"}]}]}
